# Reference: ChEMBL document CHEMBL1201862, “PubChem BioAssay data set” (2004)
# Active and inactive are the calls of the source.
# Legend:
# [1] = biological target: DNA dC->dU-editing enzyme APOBEC-3A (Homo sapiens, UniProt P31941); assay: A3A deaminase inhibition for selectivity – biochemical, dose response (AID 504722); format: functional
# [2] = biological target: DNA dC->dU-editing enzyme APOBEC-3G (Homo sapiens, UniProt Q9HC16); assay: Dose Response confirmation of small molecule APOBEC3G DNA Deaminase Inhibitors via a fluorescence-based single-stranded DNA deaminase assay. [Related pubchem assays (depositor defined):AID493012, AID493028]; format: functional
# Chain of DNA dC->dU-editing enzyme APOBEC-3G (Q9HC16 whole entry, the tested form may be a part): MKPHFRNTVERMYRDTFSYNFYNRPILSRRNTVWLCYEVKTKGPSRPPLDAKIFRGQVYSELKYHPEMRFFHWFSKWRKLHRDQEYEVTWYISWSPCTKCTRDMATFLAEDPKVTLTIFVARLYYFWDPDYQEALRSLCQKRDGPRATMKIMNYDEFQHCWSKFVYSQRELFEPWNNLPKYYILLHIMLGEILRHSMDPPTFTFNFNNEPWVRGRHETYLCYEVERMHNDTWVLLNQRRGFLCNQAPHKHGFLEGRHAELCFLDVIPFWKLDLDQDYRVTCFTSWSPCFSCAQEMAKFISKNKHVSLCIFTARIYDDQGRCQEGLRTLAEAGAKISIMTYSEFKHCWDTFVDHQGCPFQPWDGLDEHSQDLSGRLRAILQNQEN
# [3] = biological target: T1, Nucleotide-binding oligomerization domain-containing protein 1 (Homo sapiens, UniProt Q9Y239); assay: blockers of NOD1 pathway activity – revised, SAR follow-up (AID 2333); format: functional
# T1 sequence (Q9Y239 whole entry): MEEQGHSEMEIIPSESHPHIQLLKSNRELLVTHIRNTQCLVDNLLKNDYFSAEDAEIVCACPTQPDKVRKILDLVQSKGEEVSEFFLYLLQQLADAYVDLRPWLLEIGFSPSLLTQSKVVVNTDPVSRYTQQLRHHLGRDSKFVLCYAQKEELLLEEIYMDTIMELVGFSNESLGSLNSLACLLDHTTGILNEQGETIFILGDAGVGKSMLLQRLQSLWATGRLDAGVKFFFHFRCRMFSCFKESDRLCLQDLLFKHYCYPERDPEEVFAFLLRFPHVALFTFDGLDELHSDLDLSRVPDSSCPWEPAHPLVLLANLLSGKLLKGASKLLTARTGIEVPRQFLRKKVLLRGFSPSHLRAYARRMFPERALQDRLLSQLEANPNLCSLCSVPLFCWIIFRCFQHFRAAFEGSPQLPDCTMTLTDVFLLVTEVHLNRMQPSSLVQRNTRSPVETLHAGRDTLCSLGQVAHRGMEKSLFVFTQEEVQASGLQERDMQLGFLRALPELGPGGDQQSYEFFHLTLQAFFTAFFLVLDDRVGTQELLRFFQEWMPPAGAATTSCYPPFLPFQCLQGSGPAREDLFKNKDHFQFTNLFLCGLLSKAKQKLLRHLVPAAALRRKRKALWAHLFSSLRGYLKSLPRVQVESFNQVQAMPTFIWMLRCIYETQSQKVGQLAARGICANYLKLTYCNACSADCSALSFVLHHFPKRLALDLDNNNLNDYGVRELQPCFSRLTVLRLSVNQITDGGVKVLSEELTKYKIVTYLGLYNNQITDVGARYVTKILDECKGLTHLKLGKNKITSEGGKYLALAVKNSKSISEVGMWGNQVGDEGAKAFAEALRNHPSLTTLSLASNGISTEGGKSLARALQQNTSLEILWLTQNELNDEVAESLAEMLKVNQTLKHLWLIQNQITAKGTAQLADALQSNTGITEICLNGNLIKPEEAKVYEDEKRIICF
# [4] = loss of viability in HepG2 cells – cell-based, CellTiter-Glo, cherry-picked, cytotoxicity control for Shn3 inhibitor project, dose response (AID 624134); format: functional
# HEK293 [5] = assay: cells; format: functional, cell-based; conditions: Homo sapiens
# HEK293 [6] = assay: cells; format: functional, cell-based; conditions: Homo sapiens; remark: listed apart in the source
# HEK293 [7] = assay: cells; conditions: Homo sapiens
# HEK293 [8] = assay: cells; format: functional, cell-based; conditions: Homo sapiens; remark: listed apart in the source
# HEK293 [9] = assay: NOD2 signaling inhibitors in MDP-stimulated cells, cell-based, uHTS, luminescence (AID 2001); format: functional; conditions: Homo sapiens
# [10] = non-specific 3'UTR reporter inhibition in Clone20-Shn3RL – cell-based, Renilla luciferase, cherry-picked, counter-screen for Shn3 inhibitor project, dose response (AID 624133); format: functional
# [11] = reduction of Shn3 3'UTR-driven luciferase in osteoblasts – cell-based, Clone20 osteoblasts, firefly luciferase, cherry-picked, dose response (AID 624132); format: functional;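 further: firefly luciferase luminescence from reporter carrying the Shn3 3'UTR in osteoblasts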
# [12] = biological target: Nucleotide-binding oligomerization domain-containing protein 2 (Homo sapiens, UniProt Q9HC29); assay: inhibition of NOD2-driven NF-kB reporter – cell-based, luminescence, uHTS, HEK293 (AID 1566); format: functional
# HEK293 [13] = assay: inhibition of NOD1-driven NF-kB reporter – cell-based, luminescence, uHTS, primary screen (AID 1578); format: functional; conditions: Homo sapiens
# Tumor necrosis factor = Tumor necrosis factor (Homo sapiens, UniProt P01375); assay: analog potency on TNFa NF-kB signaling – cell-based, revised, SAR follow-up (AID 2337); format: functional
# Chain of Tumor necrosis factor (P01375 whole entry): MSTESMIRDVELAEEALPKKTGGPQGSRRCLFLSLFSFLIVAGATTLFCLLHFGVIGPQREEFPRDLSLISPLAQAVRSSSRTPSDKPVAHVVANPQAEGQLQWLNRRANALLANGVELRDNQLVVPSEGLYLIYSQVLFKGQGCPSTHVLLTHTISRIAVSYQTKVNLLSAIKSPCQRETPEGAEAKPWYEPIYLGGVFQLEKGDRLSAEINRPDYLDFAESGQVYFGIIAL
# Hexokinase HKDC1 = biological target: T2, Hexokinase HKDC1 (Homo sapiens, UniProt Q2TB90); assay: inhibition of HKDC1 glucose phosphorylation – biochemical, W721R variant, dose response (AID 504729); format: functional
# T2 sequence (Q2TB90 whole entry): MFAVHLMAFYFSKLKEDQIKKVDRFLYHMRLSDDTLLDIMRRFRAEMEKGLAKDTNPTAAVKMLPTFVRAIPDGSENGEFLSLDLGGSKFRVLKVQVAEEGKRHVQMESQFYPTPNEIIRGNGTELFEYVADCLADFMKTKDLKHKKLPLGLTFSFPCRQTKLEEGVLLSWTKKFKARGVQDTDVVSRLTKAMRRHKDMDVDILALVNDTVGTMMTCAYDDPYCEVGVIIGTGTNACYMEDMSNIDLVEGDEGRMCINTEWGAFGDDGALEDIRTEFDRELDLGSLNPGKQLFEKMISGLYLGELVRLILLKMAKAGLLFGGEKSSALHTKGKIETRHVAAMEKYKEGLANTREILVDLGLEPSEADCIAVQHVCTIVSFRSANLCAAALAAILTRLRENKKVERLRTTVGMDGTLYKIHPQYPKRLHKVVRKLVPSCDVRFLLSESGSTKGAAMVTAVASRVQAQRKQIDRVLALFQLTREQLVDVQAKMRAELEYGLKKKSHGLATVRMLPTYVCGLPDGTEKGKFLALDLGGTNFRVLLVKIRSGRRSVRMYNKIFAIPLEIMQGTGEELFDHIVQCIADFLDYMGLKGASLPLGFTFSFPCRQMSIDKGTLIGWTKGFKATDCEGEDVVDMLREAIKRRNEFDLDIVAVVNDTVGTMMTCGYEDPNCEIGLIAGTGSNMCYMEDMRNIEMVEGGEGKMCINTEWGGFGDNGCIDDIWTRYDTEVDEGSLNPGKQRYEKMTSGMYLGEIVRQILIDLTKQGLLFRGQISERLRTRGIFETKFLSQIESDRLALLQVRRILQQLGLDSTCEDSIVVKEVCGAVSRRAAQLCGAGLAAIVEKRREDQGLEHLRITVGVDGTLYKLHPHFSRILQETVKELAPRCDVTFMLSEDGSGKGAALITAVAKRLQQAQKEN
# Cytochrome P450 2D6 = Cytochrome P450 2D6 (Homo sapiens, UniProt P10635); assay: qHTS Assay for Inhibitors and Substrates of Cytochrome P450 2D6. [Related pubchem assays: 410 ]; format: ADME; conditions: read-out: Potency
# [14] = biological target: Peroxisome proliferator-activated receptor gamma/Nuclear receptor coactivator 2 (Homo sapiens, UniProt P37231); format: functional;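 further: agonist potency for raising coactivator recruitment to the receptor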
# Chain of Peroxisome proliferator-activated receptor gamma/Nuclear receptor coactivator 2 (P37231 whole entry): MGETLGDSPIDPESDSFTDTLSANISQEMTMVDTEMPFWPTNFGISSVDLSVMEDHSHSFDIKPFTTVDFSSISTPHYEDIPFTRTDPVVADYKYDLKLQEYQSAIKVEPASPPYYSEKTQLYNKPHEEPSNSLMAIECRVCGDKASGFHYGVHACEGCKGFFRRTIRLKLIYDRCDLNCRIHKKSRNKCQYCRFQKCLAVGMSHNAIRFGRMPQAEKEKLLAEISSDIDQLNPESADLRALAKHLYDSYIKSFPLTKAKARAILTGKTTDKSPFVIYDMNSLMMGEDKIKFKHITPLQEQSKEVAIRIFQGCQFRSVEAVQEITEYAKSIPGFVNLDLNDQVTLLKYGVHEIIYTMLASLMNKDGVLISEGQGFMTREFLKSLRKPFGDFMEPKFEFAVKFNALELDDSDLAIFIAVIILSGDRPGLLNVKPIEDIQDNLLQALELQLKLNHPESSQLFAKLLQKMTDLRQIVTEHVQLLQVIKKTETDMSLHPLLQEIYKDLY
# Chain of Peroxisome proliferator-activated receptor gamma/Nuclear receptor coactivator 2 (Q15596 whole entry, further chain): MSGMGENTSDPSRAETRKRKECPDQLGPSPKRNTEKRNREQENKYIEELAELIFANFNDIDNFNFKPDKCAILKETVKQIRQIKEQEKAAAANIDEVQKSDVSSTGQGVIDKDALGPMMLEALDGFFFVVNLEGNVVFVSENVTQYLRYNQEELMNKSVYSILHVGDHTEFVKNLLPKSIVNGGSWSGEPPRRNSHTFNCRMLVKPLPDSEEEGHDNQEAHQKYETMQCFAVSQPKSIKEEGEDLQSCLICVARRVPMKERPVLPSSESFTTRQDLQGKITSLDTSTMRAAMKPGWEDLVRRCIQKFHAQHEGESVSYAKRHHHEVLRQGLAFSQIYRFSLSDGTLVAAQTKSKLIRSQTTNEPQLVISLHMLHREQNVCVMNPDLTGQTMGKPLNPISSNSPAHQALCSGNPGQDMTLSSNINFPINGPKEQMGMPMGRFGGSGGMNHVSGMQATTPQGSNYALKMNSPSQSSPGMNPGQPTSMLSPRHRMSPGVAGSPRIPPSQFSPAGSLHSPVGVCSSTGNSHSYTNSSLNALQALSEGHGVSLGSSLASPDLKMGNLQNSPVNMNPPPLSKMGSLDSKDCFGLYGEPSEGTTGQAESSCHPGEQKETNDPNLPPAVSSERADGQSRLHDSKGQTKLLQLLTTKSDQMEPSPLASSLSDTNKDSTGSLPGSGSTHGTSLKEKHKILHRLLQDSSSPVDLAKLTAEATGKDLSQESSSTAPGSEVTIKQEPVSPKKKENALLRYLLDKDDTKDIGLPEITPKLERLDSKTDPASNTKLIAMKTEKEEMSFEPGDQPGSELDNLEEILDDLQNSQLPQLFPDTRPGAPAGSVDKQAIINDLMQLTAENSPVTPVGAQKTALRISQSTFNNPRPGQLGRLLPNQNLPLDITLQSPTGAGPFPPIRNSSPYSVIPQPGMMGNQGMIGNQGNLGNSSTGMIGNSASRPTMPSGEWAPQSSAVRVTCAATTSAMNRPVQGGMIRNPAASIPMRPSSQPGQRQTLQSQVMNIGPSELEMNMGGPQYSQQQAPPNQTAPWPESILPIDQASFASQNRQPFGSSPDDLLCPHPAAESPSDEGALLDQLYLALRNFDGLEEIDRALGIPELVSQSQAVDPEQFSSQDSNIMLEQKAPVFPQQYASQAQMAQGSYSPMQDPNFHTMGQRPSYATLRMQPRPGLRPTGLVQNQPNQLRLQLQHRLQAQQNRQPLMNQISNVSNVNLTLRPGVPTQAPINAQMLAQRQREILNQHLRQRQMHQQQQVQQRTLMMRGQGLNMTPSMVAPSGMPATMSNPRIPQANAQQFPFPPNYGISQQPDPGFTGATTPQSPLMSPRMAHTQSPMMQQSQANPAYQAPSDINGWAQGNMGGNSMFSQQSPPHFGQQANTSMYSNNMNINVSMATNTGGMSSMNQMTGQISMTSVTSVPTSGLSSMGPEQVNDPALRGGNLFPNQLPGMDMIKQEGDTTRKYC
# [15] = biological target: Peroxisome proliferator-activated receptor gamma/Nuclear receptor coactivator 3 (Homo sapiens, UniProt P37231); format: functional;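 further: agonist potency for raising coactivator recruitment to the receptor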
# Chain of Peroxisome proliferator-activated receptor gamma/Nuclear receptor coactivator 3 (P37231 whole entry): as the sequence (P37231 whole entry) above
# Chain of Peroxisome proliferator-activated receptor gamma/Nuclear receptor coactivator 3 (Q9Y6Q9 whole entry, further chain): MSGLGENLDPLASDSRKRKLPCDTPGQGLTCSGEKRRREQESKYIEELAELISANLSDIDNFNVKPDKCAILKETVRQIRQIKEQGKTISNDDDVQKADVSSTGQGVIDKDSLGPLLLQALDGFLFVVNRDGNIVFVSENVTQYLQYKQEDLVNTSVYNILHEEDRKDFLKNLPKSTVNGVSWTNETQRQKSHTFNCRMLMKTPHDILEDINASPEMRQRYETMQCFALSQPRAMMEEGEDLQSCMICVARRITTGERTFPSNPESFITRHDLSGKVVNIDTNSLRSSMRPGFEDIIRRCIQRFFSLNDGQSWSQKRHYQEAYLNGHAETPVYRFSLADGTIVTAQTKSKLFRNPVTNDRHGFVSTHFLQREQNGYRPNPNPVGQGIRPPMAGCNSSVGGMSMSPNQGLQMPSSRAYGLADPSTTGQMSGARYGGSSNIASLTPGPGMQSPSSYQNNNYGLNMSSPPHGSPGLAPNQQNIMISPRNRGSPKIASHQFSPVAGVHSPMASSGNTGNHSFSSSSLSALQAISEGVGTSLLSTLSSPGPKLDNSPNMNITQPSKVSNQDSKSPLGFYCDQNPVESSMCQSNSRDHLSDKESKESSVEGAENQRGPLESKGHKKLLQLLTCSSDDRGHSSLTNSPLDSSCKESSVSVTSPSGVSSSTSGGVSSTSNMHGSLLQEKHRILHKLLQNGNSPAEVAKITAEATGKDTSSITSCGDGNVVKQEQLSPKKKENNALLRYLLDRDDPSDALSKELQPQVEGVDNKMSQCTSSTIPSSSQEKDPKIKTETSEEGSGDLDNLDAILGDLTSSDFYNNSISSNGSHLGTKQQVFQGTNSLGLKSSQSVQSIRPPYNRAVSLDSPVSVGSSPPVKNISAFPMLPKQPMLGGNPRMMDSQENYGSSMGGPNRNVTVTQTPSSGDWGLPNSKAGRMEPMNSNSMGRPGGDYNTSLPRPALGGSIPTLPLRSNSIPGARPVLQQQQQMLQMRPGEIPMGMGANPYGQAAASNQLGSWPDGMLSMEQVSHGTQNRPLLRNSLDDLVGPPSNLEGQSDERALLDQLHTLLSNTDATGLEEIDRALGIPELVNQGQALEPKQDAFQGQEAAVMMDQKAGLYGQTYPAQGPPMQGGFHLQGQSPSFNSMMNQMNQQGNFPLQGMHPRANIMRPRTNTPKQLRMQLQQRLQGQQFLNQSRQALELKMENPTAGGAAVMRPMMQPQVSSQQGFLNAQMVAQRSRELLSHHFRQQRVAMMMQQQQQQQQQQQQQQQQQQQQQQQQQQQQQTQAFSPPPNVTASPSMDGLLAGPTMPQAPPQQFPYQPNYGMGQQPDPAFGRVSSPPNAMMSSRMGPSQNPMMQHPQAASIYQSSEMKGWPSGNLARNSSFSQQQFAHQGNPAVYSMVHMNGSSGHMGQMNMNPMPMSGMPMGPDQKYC
# [16] = biological target: Peroxisome proliferator-activated receptor gamma/Nuclear receptor coactivator 1 (Homo sapiens, UniProt P37231); format: functional;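 further: agonist potency as compounds enhance coactivator SRC-1 recruitment to PPARgamma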
# [17] = THP-1 cell cytotoxicity, dose response, cytotoxicity control for non-replicating M. tuberculosis project (AID 489025); format: functional
# cells = format: functional
# Nonstructural protein 1 = Nonstructural protein 1 (Influenza A virus, UniProt Q194T2); format: functional, Influenza A virus (A/California/07/2009(H1N1))
# Chain of Nonstructural protein 1 (Q194T2 whole entry): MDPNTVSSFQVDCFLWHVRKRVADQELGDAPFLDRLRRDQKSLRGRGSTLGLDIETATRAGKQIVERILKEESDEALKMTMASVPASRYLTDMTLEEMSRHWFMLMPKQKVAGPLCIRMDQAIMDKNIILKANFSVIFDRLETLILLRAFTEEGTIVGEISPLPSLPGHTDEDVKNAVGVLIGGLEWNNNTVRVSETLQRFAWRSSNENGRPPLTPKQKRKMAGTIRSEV
# Chain of DNA dC->dU-editing enzyme APOBEC-3A (P31941 whole entry): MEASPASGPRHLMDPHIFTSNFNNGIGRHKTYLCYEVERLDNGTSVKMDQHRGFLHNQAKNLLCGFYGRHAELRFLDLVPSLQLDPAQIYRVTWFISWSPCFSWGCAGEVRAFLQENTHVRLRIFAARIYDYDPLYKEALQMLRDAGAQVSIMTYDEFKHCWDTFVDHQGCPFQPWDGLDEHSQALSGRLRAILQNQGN
smiles,measurement,setting,value
O=[N+]([O-])c1cccc(/C=N/n2c(S)nnc2COc2ccccc2)c1,IC50,[1],> 100 µM (inactive)
same,IC50,[2],5.51 µM (active)
O=C(c1ccc(S(=O)(=O)c2ccccc2Cl)c([N+](=O)[O-])c1)N1CCN(Cc2ccccc2)CC1,IC50,[3],3.65 µM (active)
same,AC50,[4],50 µM (active)
same,IC50,HEK293 [5],4.59 µM (active)
same,IC50,HEK293 [6],> 20 µM (inactive)
same,IC50,HEK293 [7],15.3 µM (active)
same,IC50,HEK293 [8],17.6 µM (active)
same,IC50,HEK293 [9],5.54 µM (active)
same,AC50,[10],3.48 µM (active)
same,AC50,[11],5.77 µM (active)
same,EC50,[12],11.8 µM (active)
same,EC50,HEK293 [13],12.9 µM (active)
same,IC50,Tumor necrosis factor,6.58 µM (active)
Cc1nc2c(O)c3c(c(O)c2nc1C)C1C=CC3CC1,IC50,Hexokinase HKDC1,2.23 µM (active)
COc1cccc(/C=C/C2=CC3(C)CC2(C)C(c2cccc(OC)c2)CC3=O)c1 (stereo not given),AC50,Cytochrome P450 2D6,3.16 µM (inconclusive)
COC(=O)c1ccc(NCc2cc(O)ccc2O)cc1,IC50,Hexokinase HKDC1,12.2 µM (active)
COc1ccc(N2C(=O)C[S+]([O-])C(c3ccccc3)C2=O)cc1 (stereo not given),IC50,[1],> 100 µM (inactive)
same,IC50,[2],7.26 µM (active)
COc1ccccc1CN(C)C(=O)c1ccc2c(c1)NC(=O)CS2,EC50,[14],> 79.4 µM (not active)
same,EC50,[15],> 79.4 µM (not active)
same,EC50,[16],> 79.4 µM (not active)
Cc1ccc(/C=C2\SC(N)=NC2=O)s1,EC50,[14],> 79.4 µM (not active)
same,EC50,[15],> 79.4 µM (not active)
same,EC50,[16],> 79.4 µM (not active)
Cc1ccc(Nc2ccccc2N)cc1,CC50,[17],> 40 µM (active)
same,IC50,cells,0.74 µM (active)
same,IC50,Nonstructural protein 1,21.9 µM (active)
CCOC(=O)c1ccc(-c2ccc(C(=O)Nc3cccnc3)o2)cc1,CC50,[17],29.7 µM (active)
same,IC50,cells,7.87 µM (active)
